Source: patent US20230364049A1, “COMBINATION OF P2Y6 INHIBITORS AND IMMUNE CHECKPOINT INHIBITORS” (VIB VZW, priority 2020, published 2023)

How the values were obtained:
[1] = Tolerability / body weight of treated Panc02 tumor-bearing mice; format: in vivo; details: MRS2578 3 mg/kg/day i.p.; FIG. 7
Description: (§1) Mice were randomized and treated, at indicated time points, intraperitoneally (i.p.) with 10 mg/kg of α-PD-1 (BioXcell) or control IgG from rat serum (Sigma-Aldrich), 3 mg/kg/day MRS2578 (Selleck Chemicals) or control vehicle. At the end stage, tumor weight was measured.
(§2) Mice were monitored and weighed continuously during the experiments. Mice showing symptoms of illness, that lost 20% of initial body weight, peritoneal leakage or with ulcerated tumors were sacrificed and excluded from the experiments. At the end stage, tumor weight was registered and samples were collected for histological examination, metabolomics and/or FACS/sorter analysis.

Panc02 tumors = experiment: Subcutaneously implanted Panc02 tumor model, with FACS analysis of tumors; format: in vivo, mice
Description: 4×10^6 Panc02 cells were injected subcutaneously (s.c.) in the right flank of the mouse in a final suspension of 200 μI PBS. Tumor volumes were measured at least three times per week with a calliper and calculated using the formula: Volume (mm^3): ((Width(mm))^2×Length(mm))/2. 0.1×10^6 KPC1245 cells were injected orthotopically into the head of the pancreas in 20 μl of PBS.
as §1, §2
Tumor-bearing mice were sacrificed by cervical dislocation and perfused with saline to remove circulating immune cells. Tumors were harvested and minced in αMEM medium (Lonza) supplemented with 5% FBS, 1% Pen/Strep, 50 μM β-mercaptoethanol (Gibco), 5U/mL DNase I (Qiagen), 0.85 mg/mL Collagenase V (Collagenase from Clostridium histolyticum, Sigma-Aldrich), 1.25 mg/mL Collagenase D (Collagenase from Clostridium histolyticum, Roche) and 1 mg/mL Dispase II (Gibco) and incubated for 30 minutes at 37° C. The digested tissue was filtered using a 70 μm pore sized mesh strainer and cells were centrifuged 5 minutes at 300 xg. The samples were resuspended in Red Blood Cell Lysing Buffer Hybri-Max™ (Sigma-Aldrich) for 30 seconds, inactivated with FACS buffer (PBS containing 2% FBS and 2 mM EDTA) and centrifuged. The cell pellets were resuspended in FACS buffer and filtered with a 40 μm pore sized mesh strainer. Cells were resuspended in FACS buffer and for the intracellular measurement of interferon γ (IFN-γ) and granzyme B (GZMB), single-cell suspensions were culture in RPMI medium supplemented with 10% FBS, 1% glutamine, 1% Pen/Strep and stimulated with phorbol 12-myristate 13-acetate (PMA)/ionomycin Cell Stimulation Cocktail (eBioscience™, 1:500) in the presence of Brefeldin A (BioLegend®, 1:1000) or Monensin (eBioscience™, 1:1000) for 4 h at 37° C. Cells were then incubated for 15 minutes at 4° C. with Mouse BD Fc Block purified Rat Anti-Mouse CD16/CD32 mAb (BD Pharmingen™) and stained with the following antibodies for 30 minutes at 4° C.: Fixable viability dye (eFluor™ 506, eBioscience™), anti-CD45 (30-F11, APC-Cy7 or FITC, BioLegend®), anti-CD11b (M1/70, PerCP-Cy5.5, BioLegend®; eFluor™ 450, eBioscience™; or PE, BD Biosciences), anti-TCR-13 chain (H57-597, BV421, BD Biosciences), anti-CD4 (RM4-5, PE, BioLegend®), anti-CD8 (53-6.7, PE-Cy7, eBioscience™ or 53-6.7, APC-Cy7, BioLegend®), anti-CD69 (H1.2F3, APC, eBioscience™), anti-F4/80 (BM8, Alexa Fluor 488, eBioscience™; PerCP-Cy5.5, BioLegend®; or BV421, BioLegend®), anti-IFN-γ (XMG1.2, PE-Cy7, eBioscience™), anti-GZMB (GB11, Alexa Fluor 647, BioLegend®), anti-MHC-II (M5/114.15.2, APC, eBioscience™; or PerCP-eFluor 710, eBioscience™), anti-CD11c (N418, PE-Cy7, eBioscience™), anti-CD206 (MR5D3, Alexa Fluor 647, Bio-Rad), anti-Ly-6G (1A8, PE, BD Pharmingen™) anti-CD335 (NKp46) (29A1.4, APC, BioLegend®), anti-Foxp3 (FJK-16s, APC, eBioscience™) and anti-CD25 (PC61.5, PE-Cy7, eBioscience™). Cells were subsequently washed and resuspended in cold FACS buffer before FACS analysis or flow sorting by a FACS Verse or FACS Aria (BD Biosciences), respectively.

[2] = system: murine bone marrow derived macrophages (BMDMs); experiment: BMDM migration assay (Transwell, UDP as chemoattractant); format: cell-based; details: 10 μM MRS2578, 100 μM UDP in bottom chamber, 6 h, FIG. 4
Description: In the macrophage migration assays, 1×10^5 murine BMDMs were seeded on […] polycarbonate membranes (Transwell; Costar) with or without 10 μM MRS2578. The bottom chambers contained DMEM with or without 100 μM UDP, 100 μM Uridine (Sigma-Aldrich) or 100 μM Cytidine (Sigma-Aldrich), or alternatively, conditioned media from NT or CDA KD cells.
After 6 h incubation, the cells were removed from the top of each membrane with a cotton stick and migrated cells were fixed in 4% PFA, washed in PBS, stained with crystal violet (2.5 g/L) and Hoechst, and mounted on glass slides with ProLong Gold mounting medium without DAPI. Images were acquired with Olympus BX41 microscope and CellSense imaging software.

[3] = Panc02 tumors, MRS2578 vs vehicle, FIG. 6

S=C=Nc1cccc(NC(=S)NCCCCNC(=S)Nc2cccc(N=C=S)c2)c1 [MRS2578, N,N-1,4-butanediylbis-N-(3-isothiocyanatophenyl) thiourea]
Harmful effect on mice (evolution of body weight) [1]: no harmful effect
Tumor volume (Panc02 tumors; MRS2578 3 mg/kg/day i.p. combined to α-PD-1 therapy (10 mg/kg i.p.), sc Panc02, FIG. 5): decrease
Tumor weight (Panc02 tumors; MRS2578 3 mg/kg/day i.p. combined to α-PD-1 therapy (10 mg/kg i.p.), sc Panc02, end stage, FIG. 5): decrease
Infiltration of M2 polarized TAMs into Panc02 tumors (Panc02 tumors; Panc02 tumors, MRS2578): reduced infiltration
Infiltration of tumor-associated macrophages (TAMs) into Panc02 tumors (Panc02 tumors; Panc02 tumors, MRS2578): Reduced infiltration
Activation of CD8+ T cells in the tumors (GZMB, FACS) (Panc02 tumors; [3]): more activated
M2 polarization of macrophages (CD206 expression by FACS) (Panc02 tumors; [3]): reduction of M2 polarization
Migration of BMDMs towards UDP [2]: abrogated
Migration of BMDMs towards UDP ([2]; listed as MRS 2578): specifically inhibited
